Laboratory results published in patent publication US20220202783A1, “Use Of ADAM9 Inhibitor As Immunomodulator” (China Medical University, priority 2019, published 2022).

Tests used:
[1] = cytotoxicity assay in 293 cells; type: cell-based; set-up: key to effect of inhibiting tumor cell growth: “+” represents that the compound has the effect of inhibiting tumor cell growth; conditions: 293
[2] = system: kidney cancer cells (293); experiment: cytotoxicity assay in 293 cells; type: cell-based; set-up: key to effect of inhibiting tumor cell growth: “+” represents that the compound has the effect of inhibiting tumor cell growth; conditions: Homo sapiens, HEK293
[3] = cytotoxicity assay in HNOF cells; type: cell-based; set-up: key to effect of inhibiting tumor cell growth: “+” represents that the compound has the effect of inhibiting tumor cell growth; conditions: human, HNOF cells
HNOF = experiment: cytotoxicity assay in HNOF cells; type: cell-based; set-up: key to effect of inhibiting tumor cell growth: “+” represents that the compound has the effect of inhibiting tumor cell growth; conditions: HNOF
lung cancer cells (A549) = experiment: cytotoxicity assay in A549 cells; type: cell-based; set-up: key to effect of inhibiting tumor cell growth: “+” represents that the compound has the effect of inhibiting tumor cell growth; conditions: for IC50: Homo sapiens
Procedure: (§1) Please refer to FIG. 1A, FIG. 1B and Table 2, which show the analysis results of the compound of Formula (I) inhibiting ADAM9 activity. In FIG. 1A, Bm7 lung cancer cells were treated with the derivatives of the compound 6X-0310, and then cultured under anchorage-free culture condition. The expressions of ADAM9 and CDCP1 in Bm7 lung cancer cells were detected by Western blot, in which EF1α is an internal control, and mock represents Bm7 lung cancer cells without treatment. […] In the experiment, the compounds of Formula (I) of Example 1 to Example 32 were further performed cytotoxicity assay to measure the IC50 value of the compounds of Formula (I) of the present disclosure in lung cancer cell lines.

[4] = system: lung cancer cells (H1299); experiment: cytotoxicity assay in H1299 cells; type: cell-based; set-up: key to effect of inhibiting tumor cell growth: “+” represents that the compound has the effect of inhibiting tumor cell growth; conditions: for effect of inhibiting tumor cell growth: H1299; for IC50: Homo sapiens, NCI-H1299
Procedure: as §1

lung cancer cells (TC1) = experiment: cytotoxicity assay in TC1 cells; type: cell-based; set-up: key to effect of inhibiting tumor cell growth: “+” represents that the compound has the effect of inhibiting tumor cell growth; conditions: for IC50: TC-1
Procedure: as §1

[5] = system: lung cancer cells (Bm7brmx2); experiment: cytotoxicity assay in Bm7brmx2 cells; type: cell-based; set-up: key to effect of inhibiting tumor cell growth: “+” represents that the compound has the effect of inhibiting tumor cell growth
Procedure: as §1

[6] = system: lung cancer cells (Bm7brmx2-1st); experiment: cytotoxicity assay in Bm7brmx2-1st cells; type: cell-based; set-up: key to effect of inhibiting tumor cell growth: “+” represents that the compound has the effect of inhibiting tumor cell growth
Procedure: as §1

[7] = system: breast cancer cells (231-brm); experiment: cytotoxicity assay in 231-brm cells; type: cell-based; set-up: key to effect of inhibiting tumor cell growth: “+” represents that the compound has the effect of inhibiting tumor cell growth
Bm7 lung cancer cells [8] = experiment: cytotoxicity assay, FIG. 1B and Table 2 summary; type: cell-based
Procedure: as §1

[9] = system: CDCP1 in Bm7 lung cancer cells; experiment: Western blot of ADAM9 and CDCP1 expression in Bm7 cells; type: cell-based; conditions: anchorage-free culture
Procedure: as §1

recombinant human ADAM9 = target: T1, recombinant human ADAM9 (Homo sapiens, UniProt Q13443); experiment: ADAM9 enzymatic activity ELISA with fluorescent peptide substrate; type: biochemical; conditions: different concentrations
T1 construct: purchased R&D system
Source text: To measure the efficacy of the compound of Formula (I) in suppression of ADAM9 enzymatic activity, an ELISA system was established using recombinant human ADAM9 and a fluorescent peptide substrate (R&D system) in the experiment. Broad-spectrum MMP inhibitor-BB-94 was included as a positive control. The compounds of Formula (I) used in this experiment were the compound SW1 and the compound SW2.

ADAM17 = ADAM17 (Homo sapiens, UniProt P78536); experiment: inhibition of ADAM17 activity; type: biochemical; conditions: different concentrations
Bm7 lung cancer cells [10] = experiment: migration inhibition assay; type: cell-based; conditions: 25 μM, control Bm7 lung cancer cells (shGFP)
Procedure: To further evaluate the specificity of the compound SW1 and the compound SW2, control Bm7 lung cancer cells (treated with shGFP) and ADAM9 knockout (KO) Bm7 lung cancer cells (treated with shADAM9) were treated with 25 μM of the compound SW1 or the compound SW2, respectively, and then performed a migration inhibition assay.

[11] = system: lung cancer brain metastatic cell line-Bm7brmx2; experiment: anoikis in anchorage-free culture, Bm7brmx2; type: cell-based; conditions: read-out: IC50 value for anoikis (anchorage-free induced apoptosis)
Procedure: (§2) To ensure the compound SW1 and the compound SW2 in blocking anoikis-resistance of cancer cells, the IC50 value (unit is μM) of the compound SW1 and the compound SW2 for anoikis (anchorage-free induced apoptosis) in lung cancer brain metastatic cell line-Bm7brmx2, breast cancer brain metastatic cell line-MDA-231 brm and leukocytes in anchorage-free culture conditions were determined.

[12] = system: breast cancer brain metastatic cell line-MDA-231 brm; experiment: anoikis in anchorage-free culture, MDA-231brm; type: cell-based; conditions: read-out: IC50 value for anoikis (anchorage-free induced apoptosis)
Procedure: as §2

TC1-WT lung cancer cells = experiment: Annexin V and PI staining for cell apoptosis; type: cell-based; conditions: 24 hours, compared with TC1-ADAM9 KO lung cancer cells
Procedure: In the experiment, TC1-WT lung cancer cells and TC1-ADAM9 KO lung cancer cells were further treated with the compound SW1 or the compound SW2 for 24 hours, and then stained with Annexin V and PI to detect cell apoptosis. Please refer to FIG. 2F, where the percentage of Annexin V+ cells (apoptotic cells) is the statistical result from three independent experiments, with mean±SD.

PC-080 = experiment: cytotoxicity on pancreatic cancer cells, PC-080; type: cell-based; conditions: Pancreatic cancer cell
Procedure: (§3) In addition, the IC50 values (unit is μM) of the compound SW1 and the compound SW2 on pancreatic cancer cells were measured in the experiment.

Su86-86-GFP-Luc = experiment: cytotoxicity on pancreatic cancer cells, Su86-86-GFP-Luc; type: cell-based; conditions: Pancreatic cancer cell
Procedure: as §3

HPAC-GFP-Luc = experiment: cytotoxicity on pancreatic cancer cells, HPAC-GFP-Luc; type: cell-based; conditions: Pancreatic cancer cell
Procedure: as §3

Bm7 lung cancer cells [13] = experiment: tumor sphere formation; type: cell-based; conditions: 25 μM, 12 hours
Procedure: In the experiment, the Bm7 lung cancer cells were treated with 25 μM of the compound SW1 or the compound SW2 for 12 hours, and the number of tumor spheres formed was determined. Please refer to FIG. 2H, where mock represents Bm7 lung cancer cells without treatment.

T1 sequence (Q13443 29-819): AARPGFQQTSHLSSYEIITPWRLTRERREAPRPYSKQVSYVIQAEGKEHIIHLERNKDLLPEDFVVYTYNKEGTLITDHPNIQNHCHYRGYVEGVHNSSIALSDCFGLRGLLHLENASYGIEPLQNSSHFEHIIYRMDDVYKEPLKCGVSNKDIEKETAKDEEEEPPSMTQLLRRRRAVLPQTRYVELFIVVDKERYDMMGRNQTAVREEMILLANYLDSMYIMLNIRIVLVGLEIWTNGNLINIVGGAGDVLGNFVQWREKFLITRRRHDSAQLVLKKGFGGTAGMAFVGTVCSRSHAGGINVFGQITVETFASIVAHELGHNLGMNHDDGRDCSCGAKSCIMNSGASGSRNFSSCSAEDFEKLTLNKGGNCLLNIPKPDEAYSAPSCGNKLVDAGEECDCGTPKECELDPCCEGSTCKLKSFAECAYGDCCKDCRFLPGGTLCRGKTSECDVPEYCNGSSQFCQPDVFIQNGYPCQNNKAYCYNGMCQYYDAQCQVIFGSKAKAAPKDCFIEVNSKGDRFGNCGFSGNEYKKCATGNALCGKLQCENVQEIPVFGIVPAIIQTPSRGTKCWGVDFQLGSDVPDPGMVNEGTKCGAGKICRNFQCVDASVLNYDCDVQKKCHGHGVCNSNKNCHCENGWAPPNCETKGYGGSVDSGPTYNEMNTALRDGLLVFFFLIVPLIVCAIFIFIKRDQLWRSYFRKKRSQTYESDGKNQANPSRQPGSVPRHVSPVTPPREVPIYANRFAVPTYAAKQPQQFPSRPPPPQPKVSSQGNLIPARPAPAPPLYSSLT
Sequence of ADAM17 (P78536 215-824, species assumed): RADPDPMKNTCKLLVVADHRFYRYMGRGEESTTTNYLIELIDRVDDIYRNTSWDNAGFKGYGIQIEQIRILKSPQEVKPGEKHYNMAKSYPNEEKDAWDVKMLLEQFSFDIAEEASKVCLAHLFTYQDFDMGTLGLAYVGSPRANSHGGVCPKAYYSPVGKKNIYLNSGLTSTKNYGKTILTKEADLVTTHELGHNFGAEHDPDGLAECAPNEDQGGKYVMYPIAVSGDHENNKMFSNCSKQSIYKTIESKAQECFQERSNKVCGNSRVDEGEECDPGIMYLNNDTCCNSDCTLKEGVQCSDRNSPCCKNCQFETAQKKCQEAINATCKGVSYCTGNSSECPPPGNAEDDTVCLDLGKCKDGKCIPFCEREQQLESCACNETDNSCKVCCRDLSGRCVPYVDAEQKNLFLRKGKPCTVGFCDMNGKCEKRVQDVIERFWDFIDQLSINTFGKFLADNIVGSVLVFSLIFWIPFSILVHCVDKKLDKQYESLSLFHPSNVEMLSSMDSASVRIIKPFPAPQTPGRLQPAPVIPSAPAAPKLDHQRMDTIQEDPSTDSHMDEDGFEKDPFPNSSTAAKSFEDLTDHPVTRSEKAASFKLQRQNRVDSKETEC

Compound | effect of inhibiting tumor cell growth [1] | IC50 [2] | IC50 [3] | effect of inhibiting tumor cell growth (HNOF) | effect of inhibiting tumor cell growth (lung cancer cells (A549)) | IC50 (lung cancer cells (A549)) | effect of inhibiting tumor cell growth [4] | IC50 [4] | effect of inhibiting tumor cell growth (lung cancer cells (TC1)) | IC50 (lung cancer cells (TC1)) | IC50 [5] | effect of inhibiting tumor cell growth [5] | IC50 [6] | effect of inhibiting tumor cell growth [6] | IC50 [7] | effect of inhibiting tumor cell growth [7] | tumor cell cytotoxicity compared with the core structure compound 6X-0310 (Bm7 lung cancer cells [8]) | expression of CDCP1 [9] | inhibition of ADAM9 activity (recombinant human ADAM9) | inhibition of ADAM17 activity (ADAM17) | also measured
O=C1c2ccccc2C(=O)N1CCc1csc(Nc2nc(CCN3C(=O)c4ccccc4C3=O)cs2)n1 [SW1] | + | 81.3 µM | 97.8 µM | + | + | 434 µM | + | 76.9 µM | + | 80.4 µM | 71.6 µM | + | 40.4 µM | + | 4.5 µM | + | stronger tumor cell cytotoxicity | reduce the expression of CDCP1 | decrease ADAM9 activity to a similar extent in a dose-dependent manner | no inhibitory effects | migration ability (Bm7 lung cancer cells [10]): significantly reduce the migration ability; IC50 [11]: 20 µM; IC50 [12]: 4.5 µM; cell apoptosis (Annexin V+ cells) (TC1-WT lung cancer cells): induce cell apoptosis; IC50 (PC-080): 446 µM; IC50 (Su86-86-GFP-Luc): 59.2 µM; IC50 (HPAC-GFP-Luc): 126 µM; number of tumor spheres formed (Bm7 lung cancer cells [13]): greatly reduce the number of tumor spheres
O=C(Nc1nc(CCN2C(=O)c3ccccc3C2=O)cs1)c1cc2ccccc2s1 [SW2] | + | 15 µM | 61.9 µM | + | + | 458 µM | + | 32 µM | + | 64.2 µM | 52.7 µM | + | 44.3 µM | + | 7.55 µM | + | stronger tumor cell cytotoxicity | reduce the expression of CDCP1 | decrease ADAM9 activity to a similar extent in a dose-dependent manner | no inhibitory effects | migration ability (Bm7 lung cancer cells [10]): significantly reduce the migration ability; IC50 [11]: 27 µM; IC50 [12]: 7.5 µM; cell apoptosis (Annexin V+ cells) (TC1-WT lung cancer cells): induce cell apoptosis; IC50 (PC-080): 89.6 µM; IC50 (Su86-86-GFP-Luc): 66.8 µM; IC50 (HPAC-GFP-Luc): 29.3 µM; number of tumor spheres formed (Bm7 lung cancer cells [13]): greatly reduce the number of tumor spheres
